Assay: Thermal stability by thermogravimetric analysis (TGA)
Assay type: physicochemical
Conditions: at relevant processing temperatures (<250° C.)
Procedure: Prior to thermokinetic processing, thermal stability of BI 667 was assessed using thermogravimetric analysis (TGA). BI 667 was considered stable (<1% mass loss on TGA) at relevant processing temperatures (<250° C.). […] (data not shown). […] Thus, a max processing temperature (and therefore ejection set point temperature) of the mixture was set at 160° C. TGA was performed on a TGA/DSC 1 (Mettler Toledo, Schwerzenbach, Switzerland). The temperature ramp utilized in this study was performed from 25 to 300° C. at a rate of 5° C./min with a nitrogen purge of 50 mL/min. Data were analyzed using STARE System.

- mass loss on TGA: < 1%
Structure (SMILES): CS(=O)(=O)c1cc(C2(NC(=O)c3cncc4c3cnn4-c3ccc(F)cc3)CC2)ccn1 [BI 667]
